The source of these data is US11241013B2, “Benzimidazole compounds as agricultural chemicals” (REDAG CROP PROTECTION LTD, priority 2017, dated 2022).

Molecules are shown by their SMILES.

Assay type in all cases: cell-based
The test system of assay [1] is Pythium ultimum. As to the kind of experiment: Amended agar assay. Details: key to % control Pythium ultimum 2 ppm / % control Pythium ultimum 20 ppm: D: no control detected at this concentration; C: up to 50% control; B: from 50 to 99% control; A: a control of greater than 99%, i.e. no detectable colony growth. The following applies: amended PDA agar, % reduction in colony growth vs control plate, 18° C.; for inhibition of growth at 20 ppm / inhibition of growth at 2 ppm: Globisporangium ultimum. The procedure:
Testing was carried out on potato dextrose agar (PDA) amended with each compound at a test concentration of typically 20 ppm or 2 ppm. Amended agar was poured into three replicate 9 cm petri dishes. Each replicate dish was inoculated in the centre with a 5 mm agar plug taken from the leading edge of a culture aged between 2 and 7 days old; the age of the culture was dependant on the growth rate of the pathogen being tested. The test pathogens were Pythium ultimum and Phytophthora cinnamomi. Plates were incubated at 18° C. and the diameter of each colony measured before growth on the fastest growing plate reached the plate edge. This varied between 2 and 7 days depending on the growth rate of test pathogens. The % reduction in colony growth compared to the control plate was calculated for each pathogen. The results are provided in Table 1, in which D represents no control detected at this concentration; C represents up to 50% control; B from 50 to 99% control; and A represents a control of greater than 99%, i.e. no detectable colony growth.
Alternatively, or in addition, the same assay was conducted at descending test concentrations with 5-fold dilutions typically down to 0.032 ppm though sometimes as low as 0.00026 ppm, and an EC50 (the concentration at which 50% control would be achieved) was determined. The results are provided in Table 1 in which G represents no control detected at 20 ppm, F represents an EC50 of ≥20 ppm and E represents an EC50 of less than 20 ppm.

Assay [2] concerns Phytophthora cactorum. As to the kind of experiment: 96 well plate test. Details: key: G: no control detected at 20 ppm; F: an EC50 of ≥20 ppm; an EC50 of less than 20 ppm. The conditions noted are these: 96 well plate assay, agar amended to 20, 2, 0.2 and 0.02 ppm, assessed after 2 to 3 days. The procedure:
(§1) Compounds were screened in 96 well plates with 10 compounds per plate. Each compound was screened using agar amended to 20, 2, 0.2 and 0.02 ppm, with proline at 50 and 10 ppm and 0.2% DMSO used as controls. Each test concentration and standard was replicated twice on a plate. Compounds were screened against Phytophthora cactorum. The agar used in the test is a 1% potato dextrose agar. 1000 spores/mL agar were added to the appropriate agar. A ×10 stock solution in 2% DMSO was produced for each dose i.e. 200, 20, 2 and 0.2 ppm, and 10 μl of this added to the appropriate wells on the plate. An equivalent amount of 2% DMSO and proline stock at 500 and 100 ppm were added for the controls. To each well 90 μl of the appropriate agar spore suspension was added to give the required final well concentrations. Plates were incubated at room temperature (18° C.) and assessed after 2 to 3 days. The amount of pathogen growth in each well was compared to the DMSO controls and an EC50 concentration was calculated. The results are provided in Table 1 in which H represents no control detected at 20 ppm, G represents no control detected at 2 ppm (where the highest test concentration in the assay was 2 ppm), F represents an EC50 of ≥20 ppm, E represents an EC50 of less than 20 ppm.

The test system of assay [3] is Phytophthora cactorum. As to the kind of experiment: 96 well plate test. The conditions noted are these: 96 well plate assay, agar amended to 20, 2, 0.2 and 0.02 ppm, assessed after 2 to 3 days, read-out: EC50 Phytophthora spp. (Phytophthora cactorum). The procedure: as §1

For `Cn1nnnc1-n1c(OCc2ncccn2)nc2ccccc21` [Example 2], in assay [1] (20 ppm), the “% control Pythium ultimum 20 ppm” value was “D”. Also, in assay [2], the “EC50 Phytophthora spp. (Phytophthora cactorum)” value is “H”.

Take `Cn1nnnc1-n1c(OCc2cnccn2)nc2ccccc21` [Example 5]: the inhibition of growth at 20 ppm in assay [1] (20 ppm) is less than 50%. The “% control Pythium ultimum 2 ppm” value in assay [1] is recorded as “D”. For the same molecule, in assay [2], the “EC50 Phytophthora spp. (Phytophthora cactorum)” value is given as “H”.

The molecule `Nc1cccc(COc2nc3ccccc3n2-c2ncncc2Cl)n1` [Example 9] registered an inhibition of growth at 2 ppm in assay [1] of less than 50%. The “EC50 Phytophthora spp. (Phytophthora cactorum)” value in assay [2] is recorded as “H”.

In assay [1], `COCCCOc1ccnc(COc2nc3ccccc3n2-c2nnnn2C)c1C` [Example 15] returned an inhibition of growth at 2 ppm of less than 50%. The molecule also gave an inhibition of growth at 20 ppm in assay [1] (20 ppm) of more than 99%. For the same molecule, the “EC50 Phytophthora spp. (Phytophthora cactorum)” value in assay [2] is on record as “H”.

Molecule `Cn1nnnc1-n1c(OCc2cccnc2)nc2ccccc21` [Example 18] had an inhibition of growth at 2 ppm in assay [1] of less than 50%. For the same molecule, the “EC50 Phytophthora spp. (Phytophthora cactorum)” value in assay [2] is “H”.

In assay [1], `Cn1nnnc1-n1c(OCc2ccncc2)nc2ccccc21` [Example 19] came in with an inhibition of growth at 2 ppm of less than 50%. Also, the “EC50 Phytophthora spp. (Phytophthora cactorum)” value in assay [2] is reported as “H”.

With `Cn1nnnc1-n1c(OCc2cccnn2)nc2ccccc21` [Example 21], the inhibition of growth at 20 ppm in assay [1] (20 ppm) lay within 50 to 99%. For the same molecule, the “% control Pythium ultimum 2 ppm” value in assay [1] is recorded as “D”. Also, the “EC50 Phytophthora spp. (Phytophthora cactorum)” value in assay [2] is recorded as “H”.

As for `Cn1nnnc1-n1c(OCc2cccc(CO)n2)nc2c(Cl)cccc21` [Example 71], in assay [1], the “% control Pythium ultimum 2 ppm” value is given as “D”. In addition, the half-maximal effective concentration (EC50) in assay [3] is not below 20 µg/mL.

Consider `Cn1nnnc1-n1c(OCc2cccc(NCCc3ccccc3)n2)nc2c(Cl)cccc21` [Example 73], for which, in assay [1], the inhibition of growth at 2 ppm is more than 99%. In addition, the EC50 in assay [3] is less than 20 µg/mL.

As to `Cn1nnnc1-n1c(OCc2cccc(NCCOc3ccccc3)n2)nc2c(Cl)cccc21` [Example 74], the inhibition of growth at 2 ppm in assay [1] was more than 99%. In assay [3], the concentration for a half-maximal effect (EC50) is less than 20 µg/mL.

With `Cn1nnnc1-n1c(OCc2cc(N3CCOCC3)ccn2)nc2c(Cl)cccc21` [Example 75], the inhibition of growth at 2 ppm in assay [1] is 50 to 99%. The EC50 in assay [3] is not below 20 µg/mL.

In turn, `CCOc1ccnc(COc2nc3ccccc3n2-c2nnnn2C)c1` [Example 76] registered an inhibition of growth at 2 ppm in assay [1] of more than 99%. In assay [3], the half-maximal effective concentration (EC50) is not below 20 µg/mL.

In assay [1], `CCCOc1ccnc(COc2nc3ccccc3n2-c2nnnn2C)c1` [Example 77] came in with an inhibition of growth at 2 ppm of more than 99%. In addition, in assay [3], the EC50 is less than 20 µg/mL.

Turning to `COc1cc(F)cc2c1nc(OCc1ccccn1)n2-c1nnnn1C` [Example 78], in assay [1], the inhibition of growth at 2 ppm was in the range of 50 to 99%. In addition, the EC50 in assay [3] is less than 20 µg/mL.

Molecule `Cn1nnnc1-n1c(OCc2cccc(NCC3CCCC3)n2)nc2ccccc21` [Example 80] displayed an inhibition of growth at 2 ppm in assay [1] of more than 99%. Also, the EC50 in assay [3] is less than 20 µg/mL.

In assay [1], `Cn1nnnc1-n1c(OCc2cccc(NC3CCCC3)n2)nc2ccccc21` [Example 81] returned an inhibition of growth at 2 ppm of more than 99%. The half-maximal effective concentration (EC50) in assay [3] was less than 20 µg/mL.

In assay [1], `CCC(C)Nc1cccc(COc2nc3ccccc3n2-c2nnnn2C)n1` (stereo not drawn) [Example 82] yielded an inhibition of growth at 2 ppm of more than 99%. Further, the EC50 in assay [3] was less than 20 µg/mL.

In assay [1], `Cn1nnnc1-n1c(OCc2cccc(NCCC(F)(F)F)n2)nc2ccccc21` [Example 83] yielded an inhibition of growth at 2 ppm of more than 99%. In assay [3], the half-maximal effective concentration (EC50) is less than 20 µg/mL.

As to `Cn1nnnc1-n1c(OCc2cccc(NCc3ccc(Cl)cc3)n2)nc2ccccc21` [Example 84], the inhibition of growth at 2 ppm in assay [1] was more than 99%. The 50% effective concentration (EC50) in assay [3] is less than 20 µg/mL.

As to `Cn1nnnc1-n1c(OCc2cccc(NCc3cccc(Cl)c3)n2)nc2ccccc21` [Example 85], in assay [1], the inhibition of growth at 2 ppm was more than 99%. Further, the EC50 in assay [3] was less than 20 µg/mL.

Molecule `Cn1nnnc1-n1c(OCc2cccc(NCc3ccc(F)cc3)n2)nc2ccccc21` [Example 86] came in with an inhibition of growth at 2 ppm in assay [1] of more than 99%. In assay [3], the half-maximal effective concentration (EC50) is less than 20 µg/mL.

For the molecule `Cn1nnnc1-n1c(OCc2cccc(NCC3CC3)n2)nc2c(Cl)cccc21` [Example 87], the inhibition of growth at 2 ppm in assay [1] was more than 99%. The EC50 in assay [3] was less than 20 µg/mL.

For the molecule `CCCNc1cccc(COc2nc3c(Cl)cccc3n2-c2nnnn2C)n1` [Example 88], the inhibition of growth at 2 ppm in assay [1] is more than 99%. In addition, the EC50 in assay [3] is less than 20 µg/mL.

On to `Cn1nnnc1-n1c(OCc2cccc(NCc3ccccc3)n2)nc2c(Cl)cccc21` [Example 89], for which the inhibition of growth at 2 ppm in assay [1] was more than 99%. The half-maximal effective concentration (EC50) in assay [3] is less than 20 µg/mL.

On to `CC(C)CCNc1cccc(COc2nc3c(Cl)cccc3n2-c2nnnn2C)n1` [Example 90], for which, in assay [1], the inhibition of growth at 2 ppm was more than 99%. Moreover, the EC50 in assay [3] was less than 20 µg/mL.

In assay [1], `Cn1nnnc1-n1c(OCc2cccc(NCC3CC3)n2)nc2c(F)cccc21` [Example 91] displayed an inhibition of growth at 2 ppm of more than 99%. Further, the half-maximal effective concentration (EC50) in assay [3] was less than 20 µg/mL.

As for `Cn1nnnc1-n1c(OCc2cccc(NCc3ccccc3Cl)n2)nc2ccccc21` [Example 92], the inhibition of growth at 2 ppm in assay [1] is more than 99%. In addition, the EC50 in assay [3] was less than 20 µg/mL.

`Cn1nnnc1-n1c(OCc2cccc(NCc3cccc(C#N)c3)n2)nc2ccccc21` [Example 93]: in assay [1], the inhibition of growth at 2 ppm was more than 99%. In addition, the EC50 in assay [3] is less than 20 µg/mL.

For the molecule `COc1cccc(CNc2cccc(COc3nc4ccccc4n3-c3nnnn3C)n2)c1` [Example 94], the inhibition of growth at 2 ppm in assay [1] was more than 99%. For the same molecule, the EC50 in assay [3] is less than 20 µg/mL.

For `Cc1cccc(CNc2cccc(COc3nc4ccccc4n3-c3nnnn3C)n2)c1` [Example 95], the inhibition of growth at 2 ppm in assay [1] is more than 99%. For the same molecule, the concentration giving a half-maximal response (EC50) in assay [3] was less than 20 µg/mL.

As for `Cn1nnnc1-n1c(OCc2cccc(NCc3cccc(OC(F)(F)F)c3)n2)nc2ccccc21` [Example 96], the inhibition of growth at 2 ppm in assay [1] is more than 99%. In assay [3], the EC50 was less than 20 µg/mL.

`Cn1nnnc1-n1c(OCc2cccc(NCc3cccc(C(F)(F)F)c3)n2)nc2ccccc21` [Example 97] had an inhibition of growth at 2 ppm in assay [1] of more than 99%. Besides, the EC50 in assay [3] is less than 20 µg/mL.

`CCCCNc1cccc(COc2nc3c(Cl)cccc3n2-c2nnnn2C)n1` [Example 98]: the inhibition of growth at 2 ppm in assay [1] was more than 99%. In addition, the EC50 in assay [3] was less than 20 µg/mL.

For the molecule `CCCNc1cccc(COc2nc3c(Br)cccc3n2-c2nnnn2C)n1` [Example 99], the inhibition of growth at 2 ppm in assay [1] was more than 99%. Moreover, the 50% effective concentration (EC50) in assay [3] is less than 20 µg/mL.

The molecule `Cn1nnnc1-n1c(OCc2cccc(NCC3CC3)n2)nc2c(Br)cccc21` [Example 100] yielded an inhibition of growth at 2 ppm in assay [1] of more than 99%. In assay [3], the EC50 was less than 20 µg/mL.

In assay [1], `Cc1cccc(CNc2cccc(COc3nc4c(Cl)cccc4n3-c3nnnn3C)n2)c1` [Example 101] came in with an inhibition of growth at 2 ppm of 50 to 99%. For the same molecule, the concentration giving a half-maximal response (EC50) in assay [3] is less than 20 µg/mL.

With `Cc1cccc(CNc2cccc(COc3nc4c(Br)cccc4n3-c3nnnn3C)n2)c1` [Example 102], the inhibition of growth at 2 ppm in assay [1] was in the range of 50 to 99%. For the same molecule, in assay [3], the half-maximal effective concentration (EC50) is less than 20 µg/mL.

In assay [1], `CC(C)Nc1cccc(COc2nc3c(Cl)cccc3n2-c2nnnn2C)n1` [Example 103] came in with an inhibition of growth at 2 ppm of more than 99%. In assay [3], the EC50 is less than 20 µg/mL.

In assay [1], `Cn1nnnc1-n1c(OCc2nc3ccccc3s2)nc2c(Br)cccc21` [Example 104] returned an inhibition of growth at 2 ppm of more than 99%. The EC50 in assay [3] is less than 20 µg/mL.

In assay [1], `Cn1nnnc1-n1c(OCc2nc3ccccc3n2C)nc2c(Br)cccc21` [Example 105] registered an inhibition of growth at 2 ppm of more than 99%. Also, the EC50 in assay [3] was less than 20 µg/mL.

In turn, `Cn1nnnc1-n1c(OCc2cccc(N)n2)nc2c(Br)cccc21` [Example 106] had an inhibition of growth at 2 ppm in assay [1] of 50 to 99%. In addition, the 50% effective concentration (EC50) in assay [3] is less than 20 µg/mL.

For `Cn1nnnc1-n1c(OCc2cc(N)ccn2)nc2ccccc21` [Example 108, 2-(((1-(1-Methyl-1H-tetrazol-5-yl)-1H-benzo[d]imidazol-2-yl)oxy)methyl)pyridin-4-amine], the “% control Pythium ultimum 2 ppm” value in assay [1] is listed as “D”. Further, the concentration for a half-maximal effect (EC50) in assay [3] was not below 20 µg/mL.

For orientation: inhibition of growth means the percentage by which the read-out fell short of the control. By EC50 is commonly meant the concentration that produces a half-maximal response.
